Assay [1] has as its system melanoma cell line G-361. The assay can be described thus: Calcein AM cytotoxicity assay, G-361. In kind it is cell-based, human. An excerpt: (§1) Absence of toxic effects against mammalian (especially human) cell lines in a wide concentration range is one of the requirements on compounds intended for use in agriculture. Because toxic compounds negatively influence metabolic processes in cells, many standard cytotoxicity assays are based on measurement of metabolisation rate of various artificial substrates. Resulting product is then quantified e.g. by means of spectrometry. The assays can be easily modified for use in 96-well plates. For evaluation of cytotoxic effect of the novel substituted 6-(alkylbenzylamino)purine derivatives of this invention, a microtiter assay based on quantification of metabolisation of Calcein AM was used. The assay is widely used in drug screening programs and in chemosensitivity testing. In live cells, Calcein AM is enzymatically hydrolysed and accumulation of resulting calcein is manifested by green fluorescence.
(§2) The cells were maintained in Nunc/Corning 80 cm^2 plastic tissue culture flasks and cultured in cell culture medium (DMEM with 5 g/l glucose, 2 mM glutamine, 100 U/ml penicillin, 100 μg/ml streptomycin, 10% fetal calf serum and sodium bicarbonate).
(§3) The cell suspensions were prepared and diluted according to the particular cell type and the expected target cell density (10^4 cells per well based on cell growth characteristics) and pippetted (80 μl) into 96-well plates. Inoculates were allowed a pre-incubation period of 24 hours at 37° C., 100% humidity and 5% CO2 for stabilisation. Tested compounds were added in total volume of 20 μl of water at time zero. Usually, test compound was evaluated at six 3-fold dilutions. In routine testing, the highest concentration tested was 100 μM, the eventual changes depended on physico-chemical characteristics of the respective compound. All drug concentrations were tested in triplicates. Incubations of cells with the test compounds lasted for 72 hours at 37° C., in 5% CO2 atmosphere and 100% humidity. At the end of incubation period Calcein AM (Molecular Probes) in PBS was added into final concentration of 1 μg/ml. After another 1 hour of incubation fluorescence (FD) was measured with the Labsystem FIA Reader Fluoroscan Ascent (UK). Growth inhibition (GI) was estimated using the following equitation: GI=(mean FDdrug exposed wells−mean FDblank)/(mean FDcontrol wells−mean FDblank)×100%.

Assay [2] relates to breast carcinoma cell line MCF-7. In words: Calcein AM cytotoxicity assay, MCF-7. In kind it is cell-based, human.
Source text: as §1, §2, §3

For assay [3], the system named is human diploid fibroblasts BJ. The assay can be described thus: Calcein AM cytotoxicity assay, BJ. Conditions: 72 hours. In kind it is cell-based.
Source text: as §1, §2, §3

The subject of assay [4] is osteosarcoma cell line HOS. In words: Calcein AM cytotoxicity assay, HOS. The format is cell-based, human. The note with it: 72 hours.
Source text: as §1, §2, §3

For assay [5], the system named is erytroid leukemia cell line K-562. In words: Calcein AM cytotoxicity assay, K-562. The format is cell-based, human.
Source text: as §1, §2, §3

Assay [6] concerns Human diploid fibroblasts SNF25. In words: MTT viability assay on human diploid fibroblasts. The note with it: SNF25 passage 19, 72 hours, read-out: IC50 (reduction in mitochondrial activity, MTT). In kind it is cell-based. As for the experimental part: MTT is a standard colorimetric assay for measurement of proliferation and survival of the cells. Yellow MTT is reduced into violet formazan in metabolically active cells. The amount of formazan is measured by spectrometry. Human diploid fibroblasts SNF25 (passage 19) were seeded in 96-well plate (5000 cells per well). After 6 hours, the cultivation medium (DMEM containing 5 g/l glucose, 2 mM glutamin, 100 U/ml penicillin, 100 μg/ml streptomycin and 10% fetal calf serum) was removed and fresh medium containing a test compound in concentration range of 0-100 μM was added. The concentration was adjusted in cases of compounds with limited solubility. Each concentration was tested in 5 replicates. MTT was added to the cells after 72 hours into final concentration of 0.5 mg/ml. Incubation time was 3 hours. Resulting MTT was disolved in DMSO and absorbance was measured. The cytotoxic effect was estimated as IC=(Awells with compounds/Acontrol wells)×100%.

Assay [7] addresses T1, AHK3 (Arabidopsis thaliana, UniProt Q9C5U1).
T1 construct: expressed in transfected cells; host or cells: Escherichia coli KMI001, plasmid pSTV28-AHK3
T1 sequence (Q9C5U1 1-1036): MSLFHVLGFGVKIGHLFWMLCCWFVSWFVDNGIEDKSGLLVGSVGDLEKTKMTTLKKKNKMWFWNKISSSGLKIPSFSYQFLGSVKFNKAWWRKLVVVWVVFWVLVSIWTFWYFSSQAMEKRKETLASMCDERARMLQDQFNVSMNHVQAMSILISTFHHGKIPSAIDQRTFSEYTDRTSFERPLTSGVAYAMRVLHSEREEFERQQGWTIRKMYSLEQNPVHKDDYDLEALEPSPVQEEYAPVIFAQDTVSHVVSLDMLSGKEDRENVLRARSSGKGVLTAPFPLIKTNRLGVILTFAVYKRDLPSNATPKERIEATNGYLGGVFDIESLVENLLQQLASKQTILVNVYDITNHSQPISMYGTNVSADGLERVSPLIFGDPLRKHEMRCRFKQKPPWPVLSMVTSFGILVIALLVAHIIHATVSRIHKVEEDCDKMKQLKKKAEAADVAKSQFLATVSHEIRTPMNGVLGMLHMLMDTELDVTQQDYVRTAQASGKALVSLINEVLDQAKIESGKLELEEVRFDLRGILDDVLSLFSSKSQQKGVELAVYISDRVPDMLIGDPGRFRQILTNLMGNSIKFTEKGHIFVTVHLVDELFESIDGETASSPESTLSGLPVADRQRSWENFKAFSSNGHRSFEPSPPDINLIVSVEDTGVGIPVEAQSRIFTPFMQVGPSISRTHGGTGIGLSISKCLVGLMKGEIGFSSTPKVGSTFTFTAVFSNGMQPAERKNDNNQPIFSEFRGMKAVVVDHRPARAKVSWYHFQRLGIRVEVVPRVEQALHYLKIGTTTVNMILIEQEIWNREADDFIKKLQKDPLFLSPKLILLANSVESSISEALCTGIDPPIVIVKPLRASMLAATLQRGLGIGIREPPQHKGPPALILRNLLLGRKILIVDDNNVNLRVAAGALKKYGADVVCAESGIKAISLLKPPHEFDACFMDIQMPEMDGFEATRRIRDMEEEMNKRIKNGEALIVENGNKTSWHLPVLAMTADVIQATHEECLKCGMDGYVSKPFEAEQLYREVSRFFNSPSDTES
In words: Activation of cytokinin receptor AHK3 in E. coli KMI001 (β-galactosidase reporter). The note with it: E. coli KMI001 pSTV28-AHK3, 28 h incubation, n.i. means without interaction. In kind it is cell-based. As for the experimental part:
(§4) Escherichia coli strains KMI001 harbouring the plasmid pIN-III-AHK4 or pSTV28-AHK3 were grown overnight at 25° C. in M9 media enriched with 0.1% casamino acids to OD600˜1. The preculture was diluted 1:600 in 1 ml M9 medium containing 0.1% casamino acids and 1 μl stock solution of either the tested compound (10^−7 M−5×10^−5 M) or solvent control (DMSO, ethanol, methanol) were added. The cultures were further grown at 25° C. in microtiter plate, 200 μl per well. […] The cultures were centrifuged and 50 μl aliquots of the supernatant were transferred to microtiter plate containing 2 μl 50 mM 4-methyl umbelliferyl galactoside which was subsequently incubated for 1 h at 37° C. The reaction was stopped by adding 100 μl 0.2 M Na2CO3. Fluorescence was measured using a Fluoroscan Ascent (Labsystems, Finland) at the excitation and emission wavelengths of 365 and 460 nm, respectively. The OD600 of remaining culture was determined and β-galactosidase activity was calculated as nmol 4-methylumbelliferone×OD600^−1×h^−1.
(§5) The EC50 value, the compound concentration activating the receptor to 50%, was calculated from the obtained dose response curves. The compound functioning as cytokinin antagonists should not activate cytokinin signalling pathway. The values shown in Table 2 are means of three replicates and the entire test was repeated at least twice.

Assay [8] deals with T2, CRE1/AHK4 (Arabidopsis thaliana, UniProt Q9C5U0).
T2 construct: expressed in transfected cells; host or cells: Escherichia coli KMI001, plasmid pIN-III-AHK4
In words: Activation of cytokinin receptor CRE1/AHK4 in E. coli KMI001 (β-galactosidase reporter). In kind it is cell-based. The note with it: E. coli KMI001 pIN-III-AHK4, 17 h incubation, n.i. means without interaction. As for the experimental part:
as §4, §5

The subject of assay [9] is cytokinin receptors CRE1/AHK4 and AHK3. The assay can be described thus: Binding assay with membranes of E. coli expressing cytokinin receptors, competition with 3HtZ. Further details: species or system Arabidopsis. The note with it: negative control, 1000-fold higher concentration than compound 8. As for the experimental part:
Isolation of E. coli membranes and binding assays were carried out as previously described by Romanov et al. (Romanov et al. Analytical Biochemistry 347:129-134, 2005).

Assay [10] has as its system cytokinin-dependent tobacco callus Nicotiana tabacum L. cv. Wisconsin 38. The assay can be described thus: Cytokinin-dependent tobacco callus bioassay. In kind it is cell-based. Conditions: for activity (%) [10^−6 mol · l^−1 BA = 100%]: at concentration with highest activity, n.a. means inactive; for concentration with highest activity: callus fresh weight after four weeks. As for the experimental part: Stimulatory effect of newly prepared derivatives was tested using cytokinin-dependent tobacco callus. The cytokinin-dependent tobacco callus Nicotiana tabacum L. cv. Wisconsin 38 was maintained at 25° C. in darkness on modified MS medium, containing per 1 liter: 4 μmol of nicotinic acid, 2.4 μmol of pyridoxine hydrochloride, 1.2 μmol of thiamine, 26.6 μmol of glycine, 1.37 μmol of glutamine, 1.8 μmol of myo-inositol, 30 g of sucrose, 8 g of agar, 5.37 μmol of NAA and 0.5 μmol of the compound tested. Subcultivation was carried out every three weeks. Fourteen days before the bioassay, the callus tissue was transferred to the media without 6-benzylaminopurine. The biological activity was determined from the increase of the fresh callus weight after four weeks of cultivation. Five replicates were prepared for each concentration of the compound tested and the entire test was repeated twice. […] The compounds to be tested were dissolved in dimethylsulfoxide (DMSO) and the solution brought up to 10^−3M with distilled water. This stock solution was further diluted with the respective media used for the biotest to a concentration ranging from 10^−8M to 10^−4M.
From the obtained data, the concentration with the highest activity was selected for each compound tested. Relative activity of the compound at this concentration was calculated (Table 3). The activity obtained for 10^−6 M of the control substance 6-benzylaminopurine was postulated as 100% biological activity. […]

The source of these data is US20100240537A1, “Substituted 6-(alkylbenzylamino)purine derivatives for use as cytokinin receptor antagonists and preparations containing these derivatives” (priority 2007, published 2010).

pEC50, pIC50: −log10 of the molar value. Where two headings read alike, the source gives them in different places.

T2 sequence (Q9C5U0 whole entry): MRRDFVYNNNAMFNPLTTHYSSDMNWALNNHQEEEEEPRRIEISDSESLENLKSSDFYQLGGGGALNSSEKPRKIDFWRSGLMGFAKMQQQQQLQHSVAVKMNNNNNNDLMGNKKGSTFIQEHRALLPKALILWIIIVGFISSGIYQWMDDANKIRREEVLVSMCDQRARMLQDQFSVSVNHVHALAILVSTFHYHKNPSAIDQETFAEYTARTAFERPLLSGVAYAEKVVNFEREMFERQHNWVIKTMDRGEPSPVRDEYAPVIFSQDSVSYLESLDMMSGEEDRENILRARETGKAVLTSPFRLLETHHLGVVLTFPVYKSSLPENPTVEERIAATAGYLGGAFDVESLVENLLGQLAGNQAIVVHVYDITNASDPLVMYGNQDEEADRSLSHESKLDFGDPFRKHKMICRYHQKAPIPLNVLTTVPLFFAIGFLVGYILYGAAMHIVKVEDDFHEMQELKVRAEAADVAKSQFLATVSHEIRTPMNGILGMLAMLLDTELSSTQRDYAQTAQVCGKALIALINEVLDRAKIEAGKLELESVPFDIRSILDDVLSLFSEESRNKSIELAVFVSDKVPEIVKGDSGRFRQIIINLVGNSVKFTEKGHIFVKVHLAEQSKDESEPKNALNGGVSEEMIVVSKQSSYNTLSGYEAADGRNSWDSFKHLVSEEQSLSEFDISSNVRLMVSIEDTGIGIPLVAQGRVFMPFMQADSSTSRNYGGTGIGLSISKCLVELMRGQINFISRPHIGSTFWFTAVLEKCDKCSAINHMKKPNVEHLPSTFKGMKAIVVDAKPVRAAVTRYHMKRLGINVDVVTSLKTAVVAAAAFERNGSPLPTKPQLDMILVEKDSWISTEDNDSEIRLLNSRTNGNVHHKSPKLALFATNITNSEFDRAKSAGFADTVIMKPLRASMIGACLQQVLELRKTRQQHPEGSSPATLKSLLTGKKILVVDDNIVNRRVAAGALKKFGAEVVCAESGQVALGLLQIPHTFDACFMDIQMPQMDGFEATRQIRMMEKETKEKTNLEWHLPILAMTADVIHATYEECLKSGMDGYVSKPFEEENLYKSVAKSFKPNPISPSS

For `Oc1cccc(CNc2ncnc3nc[nH]c23)c1` [meta-topolin], the GI50 (commonly the concentration giving 50% growth inhibition) in assay [1] (72 hours) is over 100 µM; in assay [2] (72 hours, read-out: GI50 MCF7), over 100 µM; in assay [3], over 100 µM; in [4], over 100 µM; in [5] (72 hours), over 100 µM. For the same compound, in assay [6], the pIC50 (commonly the IC50 on a negative log10 scale, so that one unit is a factor of ten) is under 4.00.

Regarding `C/C(=C\CNc1ncnc2nc[nH]c12)CO` [trans-zeatin], the pEC50 in assay [7] (read-out: EC50 AHK3 (activation of cytokinin receptor)) is 5.68; in [8] (read-out: EC50 CRE1/AHK4 (activation of cytokinin receptor)), 6.05. In addition, the concentration for 50% growth inhibition (GI50) is over 100 µM in assay [1] (72 hours); over 100 µM in [2] (72 hours, read-out: GI50 MCF7); over 100 µM in assay [3]; over 100 µM in assay [4]; over 100 µM in assay [5] (72 hours). The pIC50 in assay [6] was under 4.00.

With `CC(C)=CCNc1ncnc2nc[nH]c12` [isopentenyladenine], the GI50 is over 100 µM in assay [1] (72 hours); over 100 µM in [2] (72 hours, read-out: GI50 MCF7); over 100 µM in assay [3]; over 100 µM in assay [4]; over 100 µM in assay [5] (72 hours). Further, the pIC50 in [6] was under 4.00.

As for `c1coc(CNc2ncnc3[nH]cnc23)c1` [kinetin], the GI50 in [1] (Homo sapiens, G-361, 72 hours) was over 100 µM; in [2] (Homo sapiens, MCF7, 72 hours), over 100 µM; in assay [3] (Homo sapiens, Fibroblast), over 100 µM; in [4] (Homo sapiens), over 100 µM; in [5] (Homo sapiens, K562, 72 hours) it was over 100 µM. Also, the pIC50 in assay [6] (Homo sapiens, Fibroblast) was under 4.00.

`Oc1ccccc1CNc1ncnc2nc[nH]c12` [ortho-topolin]: the GI50 in assay [1] (72 hours) is over 100 µM; in assay [2] (72 hours, read-out: GI50 MCF7), over 100 µM; in assay [3], over 100 µM; in assay [4], over 100 µM; in assay [5] (72 hours), over 100 µM. Besides, in assay [6], the negative-log IC50 (pIC50) was under 4.00.

As for `Nc1ncnc2nc[nH]c12` [adenine], the GI50 in assay [1] (Homo sapiens, G-361, 72 hours) is over 100 µM; in [2] (Homo sapiens, MCF7, 72 hours), over 100 µM; in assay [3] (Homo sapiens, Fibroblast) it was over 100 µM; in assay [4] (Homo sapiens), over 100 µM; in [5] (Homo sapiens, K562, 72 hours), over 100 µM. For the same compound, the pIC50 in assay [6] (Homo sapiens, Fibroblast) is under 4.00. In addition, in [9], the “effect on binding of 3HtZ” value is on record as “not effective at all”.

With `Cc1cccc(O)c1CNc1ncnc2nc[nH]c12` [Compound 11, 6-(2-hydroxy-6-methylbenzylamino)purine], the “EC50 AHK3 (activation of cytokinin receptor)” value in assay [7] is reported as “n.i”. In addition, in [8], the “EC50 CRE1/AHK4 (activation of cytokinin receptor)” value was “n.i”. Besides, in assay [10], the “activity (%) [10^−6 mol · l^−1 BA = 100%]” value was 23 (±5) % and the “concentration with highest activity” value is given as 10^−4 mol.l^−1.

With “6-(2-thio-5-methylbenzylamino)purine [Compound 19]”, the “EC50 AHK3 (activation of cytokinin receptor)” value in [7] was “n.i”. The “EC50 CRE1/AHK4 (activation of cytokinin receptor)” value in assay [8] is reported as “n.i”. Also, in assay [10], the “activity (%) [10^−6 mol · l^−1 BA = 100%]” value is recorded as 1.3 (±1) % and the “concentration with highest activity” value is on record as 10^−4 mol.l^−1.
